Laboratory results: US20040037837A1 (priority 2000, published 2004)

Tests used:
[1] = tested on: autologous monocyte-derived macrophages infected with M. bovis BCG, M. tuberculosis or rVV expressing Ag85A; type: cell-based, human; settings: label = peptide used to generate the STCL (or pulsed control peptide)
[2] = tested on: THP-1 cells pulsed with peptide; test: 51Cr release cytotoxicity assay of peptide specific CD8+ T cells against peptide pulsed THP-1 cells; type: cell-based, human; settings: 50:1 E:T ratio; label = peptide pulsed on targets; STCL after 2 weeks of stimulation
[3] = tested on: HLA-A2 transgenic C57B1/6 mice; type: in vivo; settings: subcutaneous peptides in IFA
[4] = tested on: Uncultured PBMCs from HLA-A2 donors; type: cell-based, human

| Sequence | recognition and lysis of M. bovis BCG, M. tuberculosis and rVV85A infected macrophages by peptide specific CTLs [1] | specific lysis of peptide pulsed THP-1 cells by P48-56 stimulated CD8^+ T cells [2] | specific lysis of peptide pulsed THP-1 cells by P242-250 reactive CD8^+ T cells [2] | peptide specific IFNγ producing T cells in the spleens ([3]; 7 days post second boost) | mean number of IFN-γ sfc's enumerated from 5×10^5 PBMCs [4] | recognition of peptide with feeder cells from wild type C57B1/6 mice ([3]; 7 days post first boost, lymph node) | IFNγ response to peptide in the lymph node ([3]; 7 days post first boost, autologous feeders) |
| --- | --- | --- | --- | --- | --- | --- | --- |
| GLPVEYLQV (listed as Mycobacterium tuberculosis) [P48-56] | able to recognise and lyse | 76% | no significant lysis | resulted in a P48-56 response | 27 | – | – |
| KLIANNTRV (listed as Mycobacterium tuberculosis) [P242-250] | able to recognise and lyse | – | 79% | – | 22 | not recognised | a response to P242-250 was seen |
